# According to US10782295B2, “Cysteine-reactive ligand discovery in proteomes” (THE SCRIPPS RESEARCH INSTITUTE, priority 2013, dated 2020):
# Columns and labels:
# Assay in all cases: competitive isoTOP-ABPP, MDA-MB-231 soluble proteome
# Format in all cases: binding
# CCT8 = target: T1, CCT8 (Homo sapiens, UniProt P50990); settings: 100 μM LDE, 60 min; peptide IAVYSC*PFDGMITETK
# T1 construct: directly in native proteomes; endogenous in cells; host or cells: MDA-MB-231
# T1 sequence (P50990 1-548): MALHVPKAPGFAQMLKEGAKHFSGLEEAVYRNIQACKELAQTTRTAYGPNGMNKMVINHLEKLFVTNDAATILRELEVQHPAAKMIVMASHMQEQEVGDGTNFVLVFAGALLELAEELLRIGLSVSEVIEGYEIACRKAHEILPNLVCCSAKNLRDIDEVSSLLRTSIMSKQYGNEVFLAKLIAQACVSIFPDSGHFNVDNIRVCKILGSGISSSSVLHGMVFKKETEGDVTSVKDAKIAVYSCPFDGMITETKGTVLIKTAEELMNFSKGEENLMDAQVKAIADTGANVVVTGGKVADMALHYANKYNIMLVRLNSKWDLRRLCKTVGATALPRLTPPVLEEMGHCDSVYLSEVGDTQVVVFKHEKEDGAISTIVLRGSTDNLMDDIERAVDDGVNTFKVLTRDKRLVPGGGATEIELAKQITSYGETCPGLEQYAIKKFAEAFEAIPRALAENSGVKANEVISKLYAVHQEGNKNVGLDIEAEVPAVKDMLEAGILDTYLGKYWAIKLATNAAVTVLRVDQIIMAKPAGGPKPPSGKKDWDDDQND
# MAP2K6 = target: T2, MAP2K6 (Homo sapiens, UniProt P52564); settings: 100 μM LDE, 60 min; peptide MC*DFGISGYLVDSVAK
# T2 construct: directly in native proteomes; endogenous in cells; host or cells: MDA-MB-231
# T2 sequence (P52564 1-334): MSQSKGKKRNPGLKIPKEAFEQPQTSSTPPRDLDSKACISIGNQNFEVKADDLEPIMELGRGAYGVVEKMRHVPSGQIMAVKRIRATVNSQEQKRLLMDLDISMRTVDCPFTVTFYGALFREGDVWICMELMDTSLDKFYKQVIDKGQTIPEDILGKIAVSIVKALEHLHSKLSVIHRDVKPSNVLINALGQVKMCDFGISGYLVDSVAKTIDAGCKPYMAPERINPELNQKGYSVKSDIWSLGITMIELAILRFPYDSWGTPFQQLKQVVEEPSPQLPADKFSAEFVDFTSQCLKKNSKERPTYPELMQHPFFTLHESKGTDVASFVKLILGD
# MAPK9 = target: T3, MAPK9 (Homo sapiens, UniProt P45984); settings: 100 μM LDE, 60 min; peptide TLEEFQDVYLVMELMDANLC*QVIHMELDHER
# T3 construct: directly in native proteomes; endogenous in cells; host or cells: MDA-MB-231
# T3 sequence (P45984 whole entry): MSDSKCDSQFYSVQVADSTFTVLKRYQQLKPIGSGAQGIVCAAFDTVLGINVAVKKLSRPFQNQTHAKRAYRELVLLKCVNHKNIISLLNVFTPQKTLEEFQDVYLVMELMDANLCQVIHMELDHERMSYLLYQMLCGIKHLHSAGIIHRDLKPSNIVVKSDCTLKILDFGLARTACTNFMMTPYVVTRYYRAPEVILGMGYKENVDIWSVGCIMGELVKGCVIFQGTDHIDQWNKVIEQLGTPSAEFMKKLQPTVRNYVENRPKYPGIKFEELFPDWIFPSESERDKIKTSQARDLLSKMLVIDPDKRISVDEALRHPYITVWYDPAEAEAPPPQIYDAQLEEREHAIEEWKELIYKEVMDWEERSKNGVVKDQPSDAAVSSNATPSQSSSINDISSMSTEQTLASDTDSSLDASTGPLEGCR
# PSMB8 = target: T4, PSMB8 (Homo sapiens, UniProt P28062); settings: 100 μM LDE, 60 min; peptide LLSNMMC*QYR
# T4 construct: directly in native proteomes; endogenous in cells; host or cells: MDA-MB-231
# T4 sequence (P28062 73-276): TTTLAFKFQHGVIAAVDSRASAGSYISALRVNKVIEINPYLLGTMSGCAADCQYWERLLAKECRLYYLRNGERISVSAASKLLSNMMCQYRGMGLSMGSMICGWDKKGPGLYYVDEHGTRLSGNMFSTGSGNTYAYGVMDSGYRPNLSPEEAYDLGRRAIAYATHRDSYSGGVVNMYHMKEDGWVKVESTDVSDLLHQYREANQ
SMILES,R value (isoTOP-ABPP ratio heavy/light) for IA-labeled cysteine of CCT8 (CCT8),R value (isoTOP-ABPP ratio heavy/light) for IA-labeled cysteine of MAP2K6 (MAP2K6),R value (isoTOP-ABPP ratio heavy/light) for IA-labeled cysteine of MAPK9 (MAPK9),R value (isoTOP-ABPP ratio heavy/light) for IA-labeled cysteine of PSMB8 (PSMB8)
"CCCCCCCCCCCCC/C=C/C=O [2-HD, 2-trans-hexadecenal]",1.06,1.15,1.14,1.05
"CCCCCC(O)/C=C/C=O (stereo not drawn) [4-HNE, 4-Hydroxynonenal]",1.14,1.9,5.08,1.19
"CCCCC/C=C/C=C1/C(=O)C=C[C@@H]1C/C=C\CCCC(=O)O [PGJ2, 15-deoxy-Δ12,14-prostaglandin J2]",7.75,7.43,1.78,5.86
